Consider one compound from US9192554B2, “Use of chicoric acid and lactic bacterium in food supplement for regulating skin pigmentation” (Nestec S.A., priority 2010, dated 2015).

This assay has as its system B16 murine melanocytes. The experiment in a line: Production of melanin by B16 murine melanocyte cell line. It is filed as cell-based. As to conditions: 72 hours, Kojic acid at 400 μg/mL. The protocol: In order to evaluate the potential beneficial effect of ingredients towards skin de- or pro-pigmentation we used 2D culture of murine melanocytes (B16) and we performed 2 tests: 1-assessment of melanin production and 2-assessment of tyrosinase production. 1. The Cell Culture Conditions. • B16 cells were cultured in DMEM 1 g/L glucose without phenol red supplemented with 10% foetal calf serum, in a humidified chamber at 37° C. and containing 5% CO2. 2. The Production of Melanin by B16 Murine Melanocyte Cell Line. • Cells were incubated with the selected ingredients or the test references (Kojic acid at 400 μg/mL) for 72 hours, in the presence or absence of NDP-MSH an analog of MSH. The total quantity of melanin (extracellular and intracellular) was evaluated by measurement of the optical density at 405 nm of each sample against melanin standards in presence or in absence of NDP-MSH. Chicoric acid has been pre-treated with La-1 [(spray dried culture Lactobacillus Johnsonii CNCM I-1225, 1.19E10 cfu/g) for 24 hours in a thermomixer at 40° C., under shaking conditions. After incubation, samples have been centrifuged 5 minutes at 3000 g. After this treatment the probiotic as such is not present anymore in the sample however the presence of its metabolites can't be excluded.

For the compound `O=c1cc(CO)occ1O` [Kojic acid], the “Melanin content (effect in words)” value is “decrease in melanin content”.
